The target of data set [1] is T1, Tyrosine-protein kinase ITK/TSK (Homo sapiens) (UniProt Q08881).
T1 sequence (whole entry): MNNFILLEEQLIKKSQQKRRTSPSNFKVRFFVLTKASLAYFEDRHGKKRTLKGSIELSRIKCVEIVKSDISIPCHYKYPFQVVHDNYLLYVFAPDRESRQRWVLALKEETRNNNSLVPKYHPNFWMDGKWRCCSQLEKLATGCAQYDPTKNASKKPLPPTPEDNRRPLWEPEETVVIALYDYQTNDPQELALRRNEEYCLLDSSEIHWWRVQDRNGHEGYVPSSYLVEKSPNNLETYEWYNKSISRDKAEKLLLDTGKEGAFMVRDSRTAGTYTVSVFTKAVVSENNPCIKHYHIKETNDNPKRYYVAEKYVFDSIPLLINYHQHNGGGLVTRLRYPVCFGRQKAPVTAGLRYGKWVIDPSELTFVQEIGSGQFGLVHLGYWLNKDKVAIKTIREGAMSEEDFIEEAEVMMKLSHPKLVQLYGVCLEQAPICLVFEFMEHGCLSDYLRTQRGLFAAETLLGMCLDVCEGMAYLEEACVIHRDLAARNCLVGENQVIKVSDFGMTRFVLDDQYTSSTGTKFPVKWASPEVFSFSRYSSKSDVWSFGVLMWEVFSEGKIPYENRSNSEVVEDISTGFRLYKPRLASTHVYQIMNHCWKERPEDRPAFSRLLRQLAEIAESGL
The data set can be described thus: Selectivity interaction (KinomeScan (DiscoverX)) EUB0000607a ITK. The following applies: at 10 µM.

Data set [2] has as its target SRSF protein kinase 3 (Homo sapiens) (UniProt Q9UPE1). The data set can be described thus: Selectivity interaction (KinomeScan (DiscoverX)) EUB0000607a SRPK3. The following applies: at 10 µM.
Data set [3] concerns the target T2, Serine/threonine-protein kinase Nek9 (Homo sapiens) (UniProt Q8TD19).
T2 sequence (whole entry): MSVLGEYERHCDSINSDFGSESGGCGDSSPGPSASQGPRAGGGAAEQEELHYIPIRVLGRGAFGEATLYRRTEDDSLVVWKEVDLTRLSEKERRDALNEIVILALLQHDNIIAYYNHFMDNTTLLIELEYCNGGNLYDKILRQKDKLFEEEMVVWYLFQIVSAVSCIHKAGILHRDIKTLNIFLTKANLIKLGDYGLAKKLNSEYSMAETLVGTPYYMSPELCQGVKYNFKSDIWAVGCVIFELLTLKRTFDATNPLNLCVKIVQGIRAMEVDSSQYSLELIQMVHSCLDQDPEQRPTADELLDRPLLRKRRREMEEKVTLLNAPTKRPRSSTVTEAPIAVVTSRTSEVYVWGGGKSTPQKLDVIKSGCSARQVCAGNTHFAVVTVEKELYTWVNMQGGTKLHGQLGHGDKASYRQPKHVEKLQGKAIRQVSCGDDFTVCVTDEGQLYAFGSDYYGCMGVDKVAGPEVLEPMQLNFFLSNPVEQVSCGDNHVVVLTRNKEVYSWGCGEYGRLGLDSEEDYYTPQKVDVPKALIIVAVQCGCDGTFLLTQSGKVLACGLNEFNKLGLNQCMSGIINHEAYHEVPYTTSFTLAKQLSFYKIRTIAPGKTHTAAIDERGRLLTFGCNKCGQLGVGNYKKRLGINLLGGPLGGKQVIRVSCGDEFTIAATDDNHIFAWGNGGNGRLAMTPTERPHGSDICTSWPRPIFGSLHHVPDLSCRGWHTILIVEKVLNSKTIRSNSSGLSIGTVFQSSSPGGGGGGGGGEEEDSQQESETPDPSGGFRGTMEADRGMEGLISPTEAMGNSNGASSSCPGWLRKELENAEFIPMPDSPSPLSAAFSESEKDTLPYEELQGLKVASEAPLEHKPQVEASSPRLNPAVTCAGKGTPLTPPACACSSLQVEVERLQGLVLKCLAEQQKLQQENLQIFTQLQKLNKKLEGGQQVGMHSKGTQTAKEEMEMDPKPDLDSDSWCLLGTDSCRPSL
The data set can be described thus: Selectivity interaction (KinomeScan (DiscoverX)) EUB0000607a NEK9. To be noted: at 10 µM.

Data set [4] deals with Proto-oncogene tyrosine-protein kinase receptor Ret (Homo sapiens), P07949 [V804M]. To be noted: at 10 µM.
Sequence of Proto-oncogene tyrosine-protein kinase receptor Ret (Homo sapiens), P07949 [V804M] (P07949 whole entry V804M): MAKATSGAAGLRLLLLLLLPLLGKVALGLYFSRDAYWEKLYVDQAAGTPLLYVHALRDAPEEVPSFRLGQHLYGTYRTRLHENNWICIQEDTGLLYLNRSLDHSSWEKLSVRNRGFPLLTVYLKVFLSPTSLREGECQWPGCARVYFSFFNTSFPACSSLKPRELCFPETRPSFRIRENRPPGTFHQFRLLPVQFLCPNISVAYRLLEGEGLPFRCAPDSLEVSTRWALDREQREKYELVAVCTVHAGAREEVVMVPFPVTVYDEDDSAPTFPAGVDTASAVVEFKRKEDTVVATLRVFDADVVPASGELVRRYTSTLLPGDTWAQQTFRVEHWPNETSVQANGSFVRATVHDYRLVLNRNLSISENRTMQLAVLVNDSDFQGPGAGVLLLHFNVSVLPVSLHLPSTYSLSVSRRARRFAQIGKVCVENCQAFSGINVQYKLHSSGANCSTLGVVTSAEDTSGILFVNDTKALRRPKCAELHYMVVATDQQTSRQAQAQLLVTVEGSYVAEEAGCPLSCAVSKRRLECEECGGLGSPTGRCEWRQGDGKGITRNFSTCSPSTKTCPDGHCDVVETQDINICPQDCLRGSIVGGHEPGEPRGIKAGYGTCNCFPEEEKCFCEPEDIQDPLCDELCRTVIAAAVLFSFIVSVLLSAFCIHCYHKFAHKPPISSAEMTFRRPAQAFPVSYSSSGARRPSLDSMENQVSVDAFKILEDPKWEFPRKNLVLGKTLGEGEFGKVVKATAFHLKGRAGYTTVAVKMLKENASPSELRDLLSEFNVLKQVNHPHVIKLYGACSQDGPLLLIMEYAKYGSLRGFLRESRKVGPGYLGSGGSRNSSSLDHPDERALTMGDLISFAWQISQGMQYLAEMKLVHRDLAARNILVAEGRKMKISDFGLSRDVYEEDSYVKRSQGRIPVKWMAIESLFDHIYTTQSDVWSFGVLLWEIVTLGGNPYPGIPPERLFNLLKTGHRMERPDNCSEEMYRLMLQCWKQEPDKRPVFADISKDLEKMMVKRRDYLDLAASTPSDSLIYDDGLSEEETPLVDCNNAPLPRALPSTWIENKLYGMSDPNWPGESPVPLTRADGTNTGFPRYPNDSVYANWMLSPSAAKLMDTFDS
In data set [5] the target is Rho-associated protein kinase 1 (Homo sapiens) (UniProt Q13464). The data set can be described thus: Selectivity interaction (KinomeScan (DiscoverX)) EUB0000666a ROCK1. The following applies: at 10 µM.
Data set [6] addresses Tyrosine-protein kinase Fes/Fps (Homo sapiens) (UniProt P07332). The data set can be described thus: Selectivity interaction (KinomeScan (DiscoverX)) EUB0000666a FES. The following applies: at 10 µM.
Data set [7] concerns the target Tyrosine-protein kinase JAK2 (Homo sapiens, UniProt O60674). The data set can be described thus: Selectivity interaction (KinomeScan (DiscoverX)) EUB0000655a JAK2. To be noted: at 10 µM.
Data set [8] addresses T3, Hormonally up-regulated neu tumor-associated kinase (Homo sapiens) (UniProt P57058).
T3 sequence (whole entry): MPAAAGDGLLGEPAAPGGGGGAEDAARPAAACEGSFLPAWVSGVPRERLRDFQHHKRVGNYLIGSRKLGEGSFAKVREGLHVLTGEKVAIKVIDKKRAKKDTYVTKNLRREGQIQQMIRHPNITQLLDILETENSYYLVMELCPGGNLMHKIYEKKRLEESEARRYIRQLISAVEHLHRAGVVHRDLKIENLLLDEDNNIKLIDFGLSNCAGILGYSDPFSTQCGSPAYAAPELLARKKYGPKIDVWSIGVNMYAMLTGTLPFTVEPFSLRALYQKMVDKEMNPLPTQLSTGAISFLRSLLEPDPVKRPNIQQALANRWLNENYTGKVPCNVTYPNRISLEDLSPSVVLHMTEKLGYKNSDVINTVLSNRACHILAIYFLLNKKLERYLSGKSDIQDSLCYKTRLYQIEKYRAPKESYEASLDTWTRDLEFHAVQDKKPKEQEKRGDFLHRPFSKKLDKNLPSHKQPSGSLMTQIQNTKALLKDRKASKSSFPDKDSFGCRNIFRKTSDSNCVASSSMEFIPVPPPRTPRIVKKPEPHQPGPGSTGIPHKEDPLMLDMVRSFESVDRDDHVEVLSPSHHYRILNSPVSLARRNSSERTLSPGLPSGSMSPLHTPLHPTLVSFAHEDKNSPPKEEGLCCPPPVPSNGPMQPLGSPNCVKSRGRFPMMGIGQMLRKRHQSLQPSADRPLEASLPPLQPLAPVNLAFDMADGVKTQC
The data set can be described thus: Selectivity interaction (KinomeScan (DiscoverX)) EUB0000695a HUNK. To be noted: at 100 nM.

In the next data set the target is MAO-B (MAOB) (Homo sapiens, UniProt P27338). The data set can be described thus: Selectivity interaction (Panel of kinases, GPCRs, ion channels and transporters (enzymatic assay)) EUB0000223bCl MAOB.
Sequence of MAO-B (MAOB) (P27338 whole entry): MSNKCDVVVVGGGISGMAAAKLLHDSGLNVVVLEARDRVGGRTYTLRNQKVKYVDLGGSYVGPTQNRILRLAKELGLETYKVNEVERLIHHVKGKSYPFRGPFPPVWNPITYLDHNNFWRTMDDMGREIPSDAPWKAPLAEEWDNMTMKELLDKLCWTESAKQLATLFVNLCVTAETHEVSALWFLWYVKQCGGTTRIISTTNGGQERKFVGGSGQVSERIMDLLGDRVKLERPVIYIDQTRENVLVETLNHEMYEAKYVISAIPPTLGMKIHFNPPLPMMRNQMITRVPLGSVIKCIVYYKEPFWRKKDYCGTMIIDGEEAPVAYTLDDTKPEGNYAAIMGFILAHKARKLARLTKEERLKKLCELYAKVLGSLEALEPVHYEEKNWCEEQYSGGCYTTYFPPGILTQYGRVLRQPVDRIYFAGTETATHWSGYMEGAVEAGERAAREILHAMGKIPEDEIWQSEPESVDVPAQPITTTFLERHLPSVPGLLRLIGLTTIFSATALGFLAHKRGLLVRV
For data set [9], the target named is Glycogen synthase kinase-3 beta (Homo sapiens, UniProt P49841). The data set can be described thus: Selectivity interaction (KinomeScan (DiscoverX)) EUB0000595a GSK3B. To be noted: at 10 µM.
Sequence of Glycogen synthase kinase-3 beta (P49841 whole entry, looked up): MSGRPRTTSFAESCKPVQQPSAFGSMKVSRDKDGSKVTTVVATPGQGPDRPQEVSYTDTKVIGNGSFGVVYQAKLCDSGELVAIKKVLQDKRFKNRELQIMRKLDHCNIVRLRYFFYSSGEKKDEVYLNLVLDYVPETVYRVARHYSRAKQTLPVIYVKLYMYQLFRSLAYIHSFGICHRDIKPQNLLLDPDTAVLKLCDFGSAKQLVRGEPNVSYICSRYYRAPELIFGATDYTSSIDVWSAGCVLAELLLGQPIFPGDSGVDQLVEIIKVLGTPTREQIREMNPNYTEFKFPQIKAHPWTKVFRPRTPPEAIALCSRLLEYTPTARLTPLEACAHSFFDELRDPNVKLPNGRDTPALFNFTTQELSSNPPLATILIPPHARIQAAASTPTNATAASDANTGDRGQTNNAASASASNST

Structures are written as SMILES.

Sequence of SRSF protein kinase 3 (Homo sapiens) (Q9UPE1 whole entry): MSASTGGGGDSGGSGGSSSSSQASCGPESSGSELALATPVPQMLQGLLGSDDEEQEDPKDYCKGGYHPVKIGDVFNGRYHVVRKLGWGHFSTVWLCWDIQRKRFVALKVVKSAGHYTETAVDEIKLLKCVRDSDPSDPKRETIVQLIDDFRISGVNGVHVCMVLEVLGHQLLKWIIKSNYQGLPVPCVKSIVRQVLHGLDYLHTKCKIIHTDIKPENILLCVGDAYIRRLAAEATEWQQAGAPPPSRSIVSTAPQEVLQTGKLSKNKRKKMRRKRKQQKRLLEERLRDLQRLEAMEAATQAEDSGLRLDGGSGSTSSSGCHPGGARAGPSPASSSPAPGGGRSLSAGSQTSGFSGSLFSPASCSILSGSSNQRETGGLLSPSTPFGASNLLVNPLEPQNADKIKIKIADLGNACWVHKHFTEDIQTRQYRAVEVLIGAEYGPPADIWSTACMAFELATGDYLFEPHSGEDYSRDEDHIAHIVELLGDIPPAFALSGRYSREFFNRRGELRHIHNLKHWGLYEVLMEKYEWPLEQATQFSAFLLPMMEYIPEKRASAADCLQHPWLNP
Sequence of Tyrosine-protein kinase Fes/Fps (Homo sapiens) (P07332 whole entry): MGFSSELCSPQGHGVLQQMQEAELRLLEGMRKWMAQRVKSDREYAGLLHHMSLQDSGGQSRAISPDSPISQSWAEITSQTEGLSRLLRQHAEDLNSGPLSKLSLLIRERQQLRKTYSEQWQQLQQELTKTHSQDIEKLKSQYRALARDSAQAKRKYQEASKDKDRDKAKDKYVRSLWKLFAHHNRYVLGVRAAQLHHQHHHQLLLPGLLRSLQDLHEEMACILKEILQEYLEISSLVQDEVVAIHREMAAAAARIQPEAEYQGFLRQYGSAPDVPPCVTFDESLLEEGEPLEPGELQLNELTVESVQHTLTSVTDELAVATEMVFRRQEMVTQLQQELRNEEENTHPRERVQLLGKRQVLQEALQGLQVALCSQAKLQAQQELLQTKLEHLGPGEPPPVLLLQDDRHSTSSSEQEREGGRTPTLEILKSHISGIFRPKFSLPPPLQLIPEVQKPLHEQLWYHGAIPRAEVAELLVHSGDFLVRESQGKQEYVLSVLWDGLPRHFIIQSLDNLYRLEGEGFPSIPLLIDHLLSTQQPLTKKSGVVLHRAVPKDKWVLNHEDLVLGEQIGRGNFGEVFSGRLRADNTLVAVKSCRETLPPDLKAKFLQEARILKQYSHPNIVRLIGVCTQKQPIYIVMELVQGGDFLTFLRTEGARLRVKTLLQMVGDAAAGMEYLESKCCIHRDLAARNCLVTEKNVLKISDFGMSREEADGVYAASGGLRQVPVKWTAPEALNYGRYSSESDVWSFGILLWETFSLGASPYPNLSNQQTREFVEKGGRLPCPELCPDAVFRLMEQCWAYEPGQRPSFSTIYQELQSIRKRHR
Sequence of Tyrosine-protein kinase JAK2 (O60674 whole entry): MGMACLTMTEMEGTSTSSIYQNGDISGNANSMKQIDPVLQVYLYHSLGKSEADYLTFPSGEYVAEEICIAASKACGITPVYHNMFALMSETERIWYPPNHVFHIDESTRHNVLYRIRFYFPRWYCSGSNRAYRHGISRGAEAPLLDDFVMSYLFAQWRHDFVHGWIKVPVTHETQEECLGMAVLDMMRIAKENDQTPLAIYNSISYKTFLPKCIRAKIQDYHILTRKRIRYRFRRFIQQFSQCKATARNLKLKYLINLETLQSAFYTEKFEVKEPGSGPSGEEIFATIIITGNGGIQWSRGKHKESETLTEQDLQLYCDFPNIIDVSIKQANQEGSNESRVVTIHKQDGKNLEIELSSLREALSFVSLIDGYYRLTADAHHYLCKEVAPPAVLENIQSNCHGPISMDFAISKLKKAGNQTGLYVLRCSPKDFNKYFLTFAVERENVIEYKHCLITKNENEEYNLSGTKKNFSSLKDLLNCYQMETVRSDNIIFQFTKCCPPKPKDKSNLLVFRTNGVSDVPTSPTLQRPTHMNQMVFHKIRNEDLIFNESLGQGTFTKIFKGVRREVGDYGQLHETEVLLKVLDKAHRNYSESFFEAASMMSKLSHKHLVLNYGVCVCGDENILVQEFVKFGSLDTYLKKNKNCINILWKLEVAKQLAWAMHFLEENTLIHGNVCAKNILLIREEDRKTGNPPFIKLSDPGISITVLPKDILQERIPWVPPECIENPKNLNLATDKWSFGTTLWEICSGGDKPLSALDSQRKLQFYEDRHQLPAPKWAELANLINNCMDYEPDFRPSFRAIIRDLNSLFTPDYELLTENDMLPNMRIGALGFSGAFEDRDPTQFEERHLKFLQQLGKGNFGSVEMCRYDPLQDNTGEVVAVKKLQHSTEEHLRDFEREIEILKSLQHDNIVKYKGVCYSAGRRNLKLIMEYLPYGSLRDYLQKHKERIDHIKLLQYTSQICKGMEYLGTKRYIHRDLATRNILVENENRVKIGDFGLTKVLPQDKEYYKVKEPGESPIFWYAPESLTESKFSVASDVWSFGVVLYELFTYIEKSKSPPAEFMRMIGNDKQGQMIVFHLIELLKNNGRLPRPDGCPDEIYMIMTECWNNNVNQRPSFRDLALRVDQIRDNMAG

`CNC(=O)Nc1ccc(-c2nc(N3CC4CCC(C3)O4)c3cnn(C4CCC5(CC4)OCCO5)c3n2)cc1`: the % of control was 88% in [1], 100% in [2] and 100% in data set [3].

On to `Cc1cc([C@@H](C)Nc2ccccc2C(=O)O)c2nc(N3CCOCC3)cc(=O)n2c1` [AZD-6482], for which the % of control in data set [4] was 100%.

`O=C(NOC[C@H](O)CO)c1ccc(F)c(F)c1Nc1ccc(I)cc1F`: the % of control in [5] and in data set [6] was 100% in each case.

In turn, `CN(C)CCOc1ccc(-c2nc(-c3ccncc3)c(-c3ccc4c(c3)CC/C4=N\O)[nH]2)cc1` returned a % of control in data set [7] of 70%.

For the molecule `Cc1cc(F)c(C(=O)Nc2cccc(-c3nncn3C(C)C)n2)cc1-n1cnc(C2CC2)c1`, the % of control in data set [8] worked out at 100%.

With `COc1cc(C(=O)N2CC[C@@H](O)[C@@H](N)C2)cc2nc(-c3cc4ccccc4n3CC3CC3)n(C)c12`, the XC50 on MAO-B (MAOB) was 15.8 µM.

As for `COCC(=O)NC/C=C/c1ccc2ncnc(Nc3ccc(Oc4ccc(C)nc4)c(C)c3)c2c1` [CP-724714], the % of control in [9] is 68%.

Values taken from ChEMBL document CHEMBL5465560, “Selectivity Literature for EUbOPEN Chemogenomic Library” (2024).
